According to patent EP4733299A1, “SULFUR-CONTAINING FUSED RING COMPOUND, PHARMACEUTICAL COMPOSITION CONTAINING SAME, AND PREPARATION METHOD THEREFOR AND USE THEREOF” (Shenzhen Braegen Pharmaceutical Co., Ltd., priority 2023, dated 2024):

Columns and labels:
α-Synuclein aggregates = biological target: T1, α-Synuclein aggregates (Homo sapiens, UniProt P37840); experiment: Fluorescence binding assay with protein aggregates (fluorescence spectrophotometer); conditions: compound 5 µM, 37°C, 5 min
T1 construct: purchased Proteos Inc RP-002
Experimental: (§1) First, the compound was a final concentration of 5 µM by dissolved in 50 mM Tris-buffer (pH 7.0) with 0.0025% (v/v) DMSO. Then, Aβ, α-Synuclein, and Tau aggregates were added, with their final concentrations being 0.02, 0.04, 0.08, 0.16, 0.32, 0.64, and 1.28 µM, respectively. Subsequently, the fluorescence measurements were detected using a fluorescence spectrophotometer (Horiba, Fluorolog3).
α-synuclein Aggregates (Proteos Inc; catalog No.: RP-002).
(§2) Tau aggregates: The cDNA sequence of Tau was inserted into a plasmid carrying a GST tag, which was then transfected into BL21 bacteria for protein expression. Bacterial pellets were resuspended in high-salt buffer (0.75 M NaCl, 50 mM Tris, pH 7.4, 1 mM EDTA), sonicated, and centrifuged at 70,000 x g for 30 min. The supernatants were applied onto a Glutathione sepharose beads column (GE Healthcare) and purified by GST tag. Thrombin was used to remove the GST tag. The protein was dialyzed with FPLC buffer (50 mM NaCl, 50 mM Tris- HCl pH 7.4). The protein was filtered through a 0.22 µm syringe filter. The concentration of Tau was adjusted to 3 mg/mL, 12.5 µM heparin was added, and the mixture was shaken at 37 °C and 300 rpm for 7 days to prepare Tau aggregates. • Incubation Concentrations: 0.02, 0.04, 0.08, 0.16, 0.32, 0.64, and 1.28 µM; • Incubation Temperature: 37°C; • Incubation Duration: 5 min; • Detection Wavelengths: [formula]
(§3) Statistical analysis was performed using GraphPad Prism® version 8.2.1.

α-Syn aggregated neurons = experiment: Staining of primary cultured neurons infected with AAV α-Syn and treated with α-Syn PFFs, fluorescence microscopy; type: cell-based, Sprague-Dawley rats; conditions: compounds 0.1 mM; Fig. 1
Experimental: Primary cultured neurons were infected with adeno-associated virus (AAV) encoding a-Syn for 7 days and then treated with a-Syn PFFs. The candidate compounds were added to the primary neurons with the indicated aggregates and analyzed using fluorescence microscopy.
Primary hippocampal neurons were isolated from […] pregnant rats. The Sprague-Dawley rats were used at embryonic E18 days. The cortical tissue was isolated, dissociated, and incubated with 5 ml of D-Hanks containing 0.25% trypsin for 5 min at 37 °C in a humidified atmosphere of 5% CO2, centrifuged at 1000 x g for 5 min after addition of 4 ml of the neuronal plating medium containing DMEM/F12 with 10% fetal bovine serum. The 1 × 10^5 cells were plated in 6-well plates for further process. DIV7 neurons were infected with AAV α-Syn FL virus and at DIV12, the neurons were transduced with 100 ng/ml α-Syn PFF, α-Syn 1-140 were incubated with the cultured primary neurons in sterile PBS to a final concentration of 0.1 mg/ml. Sonicated PFFs, or an equivalent volume of the monomer as a control, were transferred into pre-warmed neuronal medium at a final concentration of 100 ng/ml. The samples were immune-stained with anti-p-α-Syn S129 (Abcam; Catalog No.: ab59264) (pseudo-colors were converted to red) to detect a-Syn aggregates and then stained with ThT (Sigma; Catalog No.: S96200) or compounds (0.1 mM).

a-Syn aggregates = biological target: T2, a-Syn aggregates (Homo sapiens, UniProt P37840, A53T); experiment: Binding specificity on brain slices of rotenone-treated SNCA transgenic mice; conditions: brain slices, rotenone-treated SNCA Tg mice; Fig. 2
T2 construct: tissue The Jackson Laboratory 017682; host or cells: brain sections of rotenone-treated transgenic mice
Experimental: To further explore whether the positive compounds selectively bind to Lewy bodies, brain slices from mice were used to test the binding specificity assays.
Staining with a-Synuclein protein coding gene (SNCA) transgenic mice (the Jackson Laboratory; stock numbers: 017682) were treated with rotenone (Oral gavage of rotenone under the following protocol: Mice were treated with 0.1 mL/25 g of vehicle containing 1% methylcellulose (Sigma, Catalog No.: M0512) and 1.25% chloroform (Sigma, Catalog No.: 2432) or a solution containing 0.625 mg/mL of rotenone (ULTRA Scientific, Catalog No.: PST-890) with 1% methylcellulose and 1.25% chloroform. We prepared rotenone solution by dissolving rotenone in chloroform and then diluting into 1% methylcellulose solution while mixing vigorously. Rotenone or vehicle control was orally administered with a 1.2 x 60 mm gavage (Unimed, Switzerland) once a day for 5 days/week, consecutively for 3 months.), which contains abundant LB-like inclusions. Furthermore, brain slices from NFT abundant Tau P301S mice and Aβ-enriched 5 x FAD mice were also used separately.
The brain slices were fixed and incubated for 12 h at 4 °C with primary antibodies followed by incubation with Alexa Fluor 568-, Alexa Fluor 488-, or Alexa Fluor 647-conjugated secondary antibodies (Invitrogen) for 3 h at room temperature. Then stained with ThS (Sigma, Catalog No.: T1892) or candidate compounds at room temperature, 4',6-diamidino-2-phenylindole (DAPI, 1 µg/ml) (Sigma-Aldrich) was used for the nuclear staining. The slides were imaged with Olympus FluoView FV1000 confocal laser scanning microscope using Olympus FluoView software to acquire data.

p-α-Syn S129 = biological target: T3, p-α-Syn S129 (Homo sapiens, UniProt P37840); experiment: Ex vivo staining of human DLB patient brain sections; type: binding; conditions: DLB patient brain slides; Fig. 3
T3 construct: from tissue; host or cells: human DLB patient brain sections
Experimental: The ex vivo screening was extended into human DLB, and AD patient samples. Neurodegenerative diseases of DLB belong to synucleino-pathies with well-defined Lewy bodies. Therefore, the positive compounds should show robust signals with LBs and LNs.
For immunohistochemical staining, deparaffinized and antigen-retrieved 20 µm-thick human brain sections were treated with 0.3% H2O2 at room temperature for 10 min. Subsequently, the sections were washed in PBS with 0.3% Triton X-100 3 times and then blocked with 1% BSA for 30 min, followed by overnight incubation with anti-Aβ/AT8/α-Syn pS129 antibody at 4 °C. The signal was developed using a Histostain-SP kit (Invitrogen, Catalog No.: 95-9943). After washing, the sections were covered with a glass cover using mounting solution.

Aβ aggregates [1] = biological target: T4, Aβ aggregates (Homo sapiens, UniProt P05067); experiment: Fluorescence binding assay with protein aggregates (fluorescence spectrophotometer); conditions: Aβ aggregates; compound 5 µM, 37°C, 5 min
T4 construct: Aβ (1-42) peptide (rPeptide; catalog No.: A-1163-1); purchased rPeptide A-1163-1
T4 sequence (P05067 672-713): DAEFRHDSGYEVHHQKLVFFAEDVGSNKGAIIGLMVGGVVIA
Experimental: as §1
(§4) Aβ PFF: Aβ (1-42) peptide (rPeptide; catalog No.: A-1163-1) was resolved in 9 volumes of ice-cold distilled water and vortexed occasionally. After 30 min, one volume of 10X fibril-forming buffer (0.2 M NaPi, 1.5 M NaCl, 0.2% NaN3, pH 7.5) was added. The final concentration of peptide was 1 mg/ml. The solution was incubated at 37 °C for one week.
as §2, §3

Aβ aggregates [2] = experiment: as above; conditions: Kd for Aβ to Kd for α-Synuclein
Experimental: as §1, §4, §2, §3

Tau aggregates = Tau aggregates (Homo sapiens, UniProt P10636); experiment: as above; conditions: 5 min; for Ratio / α-Synuclein: Kd for Tau to Kd for α-Synuclein; for Kd: Tau aggregates, compound 5 µM, 37°C
Sequence of Tau aggregates (P10636 with tags, fused parts or gaps): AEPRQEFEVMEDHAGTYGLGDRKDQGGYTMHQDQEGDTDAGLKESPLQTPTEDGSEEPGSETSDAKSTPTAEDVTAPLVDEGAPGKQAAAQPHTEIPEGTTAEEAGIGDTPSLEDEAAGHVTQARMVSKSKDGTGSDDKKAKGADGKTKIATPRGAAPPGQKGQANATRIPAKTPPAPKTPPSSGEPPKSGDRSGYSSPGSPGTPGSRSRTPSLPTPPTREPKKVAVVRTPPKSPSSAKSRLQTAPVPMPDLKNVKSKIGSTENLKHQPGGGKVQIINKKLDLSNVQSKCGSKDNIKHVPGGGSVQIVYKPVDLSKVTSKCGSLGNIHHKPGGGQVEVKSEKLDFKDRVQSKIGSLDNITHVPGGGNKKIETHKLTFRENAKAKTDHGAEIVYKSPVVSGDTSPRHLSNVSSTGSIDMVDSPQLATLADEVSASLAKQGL
Experimental: as §1, §2, §3

Cc1cc2nc(/C=C/c3ccc(O)c(N)c3)sc2cc1N(C)CCOCCF [Compound C, (E)-2-amino-4-(2-(6-((2-(2-fluoroethoxy)ethyl)(methyl)amino)-5-methylbenzo[d]thiazol-2-yl)vinyl)phenol]
Kd (α-Synuclein aggregates): 314 nM
signals in α-Syn aggregated neurons (α-Syn aggregated neurons): selectively yielded positive signals
capture of a-Syn aggregates (a-Syn aggregates): sensitively captured a-Syn aggregates
costaining with p-α-Syn S129 (p-α-Syn S129): costained
Kd (Aβ aggregates [1]): 1510 nM
Ratio / α-Synuclein (Aβ aggregates [2]): 4.80
Ratio / α-Synuclein (Tau aggregates): 2.00
Kd (Tau aggregates): 626 nM

COc1c(/C=C/c2nc3cc(C)c(N(C)CCOCCF)cc3s2)ccc(O)c1Br [Compound E, (E)-2-bromo-4-(2-(6-((2-(2-fluoroethoxy)ethyl)(methyl)amino)-5-methylbenzo[d]thiazol-2-yl)vinyl)-3-methoxyphenol]
Kd (α-Synuclein aggregates): 15.6 nM
signals in α-Syn aggregated neurons (α-Syn aggregated neurons): selectively yielded positive signals
capture of a-Syn aggregates (a-Syn aggregates): sensitively captured a-Syn aggregates
costaining with p-α-Syn S129 (p-α-Syn S129): costained
Kd (Aβ aggregates [1]): 87.2 nM
Ratio / α-Synuclein (Aβ aggregates [2]): 5.59
Ratio / α-Synuclein (Tau aggregates): 2.34
Kd (Tau aggregates): 36.5 nM

CCN(CCOCCF)c1cc2sc(/C=C/c3ccc(O)c(Br)c3)nc2cc1C [Compound R, (E)-2-bromo-4-(2-(6-(ethyl(2-(2-fluoroethoxy)ethyl)amino)-5-methylbenzo[d]thiazol-2-yl)vinyl)phenol]
Kd (α-Synuclein aggregates): 80.9 nM
signals in α-Syn aggregated neurons (α-Syn aggregated neurons): selectively yielded positive signals
capture of a-Syn aggregates (a-Syn aggregates): sensitively captured a-Syn aggregates
costaining with p-α-Syn S129 (p-α-Syn S129): costained
Kd (Aβ aggregates [1]): 1270 nM
Ratio / α-Synuclein (Aβ aggregates [2]): 15.74
Ratio / α-Synuclein (Tau aggregates): 32.13
Kd (Tau aggregates): 2600 nM
